Where a name gives a salt, the structure may show the parent alone.
Tests used:
[1] = system: BALB/c spleen cells stimulated with C57BL/6 spleen cells; test: Inhibition of mouse allogenic mixed lymphocyte reaction; assay type: cell-based; details: Mus musculus, Lymphocyte, 96 h; 4 days culture, MTT; read-out: Mouse allogenic MLR inhibitory activity IC50
Procedure: Inhibition of Mouse Allogenic Mixed Lymphocyte Reaction
A mouse allogenic mixed lymphocyte reaction (hereinafter to be referred to as mouse allogenic MLR) was performed by mixed culture (equal ratio) of the spleen cell of BALB/c mice as the reaction cell and the spleen cell of C57BL/6 mice treated with mitomycin C as stimulated cell.
The reaction cells were prepared by the following method. Spleen was removed from 5-6 week old BALB/c mice and treated with RPMI1640 medium (containing kanamycin sulfate (60 μg/ml), penicillin G potassium (100 units/ml), N-2-hydroxyethylpiperazine-N′-2-ethanesulfonate (10 mM), 0.1% sodium hydrogencarbonate and L-glutamin (2 mM)) supplemented with 5% heat inactivated fetal bovine serum (FBS) to give a single cell suspension of the spleen cell. After hemolysis treatment, the suspension was adjusted to10^7 cells/ml with RPMI1640 medium containing 10^−4 M 2-mercaptoethanol and 10% FBS and used as a reaction cell suspension.
The reaction cell suspension (50 μl) prepared by the above method, stimulated cell suspension (50 μl) and the test compound (100 μl) prepared using RPMI1640 medium containing 10% FBS were added to a 96 well plate and incubated at 37° C. under 5% CO2 gas, 95% air for 4 days.
A pigment assay using 3-(4,5-dimethylthiazol-2-yl)-2,5-diphenyltetrazolium bromide (MTT) was applied for the determination of lymphocyte transformation reaction.
After the completion of culture, the supernatant (100 μl) in each well was removed, and 5 mg/ml MTT solution (20 μl) was added to each well, which was followed by incubation at 37° C. for 4 hours. Then, a 0.01 N hydrochloric acid solution (100 μl) containing 10% sodium dodecyl sulfate was added and the mixture was incubated at 37° C. overnight. The resulting purple crystals of formazan was dissolved and absorbance at 550 nm was measured using a microplate absorption meter, which was used as the index of lymphocyte transformation reaction of the mouse allogenic MLR. The inhibition of mouse allogenic MLR was evaluated by calculating the inhibition percentage by the following formula The results are shown in Table 7.

[2] = molecular target: T1, Human Platelet Rho Kinase (p160ROCK) (Homo sapiens, UniProt Q13464); test: Rho kinase inhibitory action (inhibition of human platelet Rho kinase (p160ROCK)); assay type: biochemical; details: histone substrate, 1 μM ATP
T1 construct: Human platelet p160ROCK was isolated by the method of Ishizaki et al; from tissue; host or cells: human platelets
Procedure: Rho Kinase Inhibitory Action (Inhibition of Human Platelet Rho Kinase (p160ROCK))
Kinase assay included the following steps. That is, a reaction mixture (total amount 30 μl) containing 50 mM Hepes-NaOH (pH=7.4), 10 mM MgCl2, 5 mM MnCl2, 2 mM dithiothreitol, 0.02% Brij35, 1 μM [γ-^32P]ATP, 330 μg/ml histone, p160ROCK (2 μl) isolated by the method of Ishizaki et al. and the test compound was incubated at 30° C. for 20 minutes. The solution was mixed with a 1/3 amount of 4× Laemmli sample buffer, boiled for 5 minutes and applied to SDS-PAGE. The gel was stained with Coomassie Brilliant Blue and dried. The band of histone was cut out and assayed for radioactivity.

[3] = system: trachea specimen contracted with acetylcholine; test: Effect on contraction by acetylcholine of trachea specimen removed from guinea pig; details: acetylcholine 10^−6 M contraction, 50% relaxation vs papaverine 10^−4 M maximum, read-out: Trachea relaxing action
Procedure: Male Hartley guinea pigs (body weight 260-390 g) were anesthetized by the peritoneal administration of pentobarbital sodium (100 mg/kg) and exsanguinated, whereafter trachea was removed. The anterior cartilage of the trachea was opened and the band was cut in a 3 mm width strip to give a specimen. The specimen was hung in a Magnus bath (40 ml) filled with Krebs-Henseleit solution (NaCl 117 mM; KCl 4.7 mM; CaCl2 2.5 mM; MgSO4 1.2 mM; NaHCO3 24.8 mM; KH2PO4 1.2 mM; glucose 11.0 mM) at a load of 1 g. The Magnus bath was constantly bubbled with a mixed gas (95% O2+5% CO2 gas). The tension of the strip was measured with an isomeric transducer (TB-611T, Nippon Koden) and depicted on a recorder (Ti-102, Tokai Irika).

[4] = system: thoractic aorta ring contracted with phenylephrine; test: Vasodilating action on phenylephrine-contracted thoracic aorta rings; details: rabbit aortic ring, phenylephrine 10^−6 M contraction; concentration for 50% relaxation; read-out: Vasorelaxing action
Procedure: Male rabbits (body weight 1.9-3.0 kg) were anesthetized with pentobarbital sodium and exsanguinated, whereafter thoractic aorta was removed. An about 2 mm width aortic ring samples were prepared and hung in a Magnus bath (40 ml) filled with Krebs-Henseleit solution (37° C., NaCl 117 mM; KCl 4.7 mM; CaCl2 2.5 mM; MgSO4 1.2 mM; NaHCO3 24.8 mM; KH2PO4 1.2 mM; glucose 11.0 mM) at a load of 2 g. The Magnus bath was constantly bubbled with a mixed gas (95% O2+5% CO2 gas). The tension of the preparation was measured with an isomeric transducer (TB-611T, Nippon Koden). The preparation was contracted with phenylephrine (10^−6 M) and, after the contraction was stabilized, the test compound was added accumulatively and relaxing action was observed.

[5] = system: smooth muscle cell (SMC) from rat aorta; test: Inhibition of growth of vascular smooth muscle cell; assay type: cell-based; details: 48 hours, MTT
Procedure: Inhibition of Growth of Vascular Smooth Muscle Cell
The separation from the artery of rat and culture of smooth muscle cell (SMC) followed the explant method of Ross (Ross, R. and Glomset, J. A., N. Engl. J. Med., 295, 369-420, 1976). Male wistar rats (10 week old) was slaughtered by cutting the carotid arteries and aorta of thorax was removed. After removal of fat tissues around the tunica externa and peeling of tunica intima, the artery was minced and incubated in 10% fetal bovine serum (FBS)-containing DMEM medium at 37° C. under 5% CO2 gas. Seven days later, the out-grown cells were separated by trypsin treatment, washed with phosphate-buffered saline (PBS) and incubated in 10% FBS-containing DMEM medium in a 80 cm^2 culture flask. The cells of subculture 2 were suspended in 10% FBS-containing DMEM medium at 5×10^4 cells/ml and 100 μl thereof per well was added to 96 well collagen-coated plate, which was incubated at 37° C. under 5% CO2 gas for one day. The test compound was appropriately diluted with dimethyl sulfoxide (DMSO) and added to the 96 well plate. The concentration of DMSO in the medium was adjusted to 1%. After 48 hours, 10 μl of MTT solution (5 mg/ml) was added and, 4 hours later, 10% sodium dodecyl sulfate-0.01 N hydrochloric acid (50 μl) was added. The absorbance at 570 nm was measured the following day by an immunoreader. The SMC growth inhibitory action of the test compound was shown by inhibition percentage calculated by the following formula The results are shown in Table 10.

Human SK-Mel-28 melanoma = test: Inhibition of cell growth of SK-Mel-28 melanoma; assay type: cell-based; details: 72 hours, MTT
Procedure: Inhibition of Cell Growth of SK-Mel-28 Melanoma
Human SK-Mel-28 melanoma (10^4 cells) and the test compound were suspended in RPMI1640 medium containing 100 μl of 10% FBS and incubated in a 96 well plate at 37° C. under 5% CO2 gas for 72 hours. After the incubation, 10 μl of MTT (5 mg/ml) was added to each well and the cells were incubated at 37° C. under 5% CO2 gas for 4 hours. Then, 10% sodium dodecyl sulfate and 0.01 N hydrochloric acid solution were each added by 10 μl to respective wells. After the plate was stood overnight, absorbance at 570 nm was measured using a microplate reader and the inhibition percentage (% cytotoxicity) was calculated by the following formula.
The cytotoxicity against human cultured tumor cells was confirmed by pigment method (Carmichael et al., Cancer Res., 47, 936-942, 1987: Mosman, J. Immunol. Methods, 65, 55-63, 1983) using 3-(4,5-dimethylthiazol-2-yl)-2,5-diphenyltetrazolium bromide (MTT).
The test compound was dissolved in dimethyl sulfoxide and diluted with RPMI 1640 medium before use. The final dimethyl sulfoxide concentration was adjusted to not more than 0.25%.

mouse femoral bone = test: Inhibition of bone resorption (in vitro), mouse femoral bone; details: 144 h, 6 days incubation of ICR mouse femoral bone
Procedure: Inhibition of Bone Resorption (in vitro)
The determination of the in vitro inhibition of bone resorption using mouse femoral bone followed the method below.
The femoral bone of 3-6 week old male ICR mice was aseptically removed, and bone marrow cavity was washed with F12 medium, containing 10% heat inactivated fetal bovine serum, penicillin G calcium (100 units/ml), kanamycin sulfate (60 μg) and 0.15% sodium hydrogencarbonate (hereinafter the medium is to be referred to as culture solution). After washing the bone marrow cavity and then removing the soft tissue adhered to the bone, the bone was subjected to incubation. The test compound was once dissolved in dimethyl sulfoxide (DMSO) to give a 10 mg/ml solution, which was diluted 1000-fold with the culture solution to give a 10 μg/ml solution. The test compounds were respectively added to the concentration shown in Table 7 and, using this culture solution (1.2 ml), the ICR mouse femoral bone was incubated in a 24 well plate for 6 days under the conditions of 5% CO2 gas, 95% air. After the completion of the incubation, the culture supernatant was recovered, and the amount of calcium suspending in the culture supernatant was quantitatively determined by the chelate method using o-cresolphthalein. The bone resorption inhibitory action of the test compound was calculated by the following formula using the incubation of the femoral bone without addition of the test compound as a control. [formula] This experiment was done with 4 cases in each group. As the control, the same amount of DMSO alone as in the case with the addition of the test compound was used.

[6] = system: hind limb skin blood flow; test: Peripheral blood flow increasing action in STZ-induced diabetic rats; assay type: in vivo, rat; details: intravenous, 1 μg
Procedure: Peripheral Blood Flow Increasing Action
Streptozotocin (STZ, 65 mg/kg) was intravenously injected to male SD rats (body weight 200-300 g) to prepare diabetic rats. One month later, STZ-induced diabetic rats were anesthetized with pentobarbital sodium and the blood flow in the hind limb skin was measured with laser blood flowmeter (ALF21R, Advance). The test compound was intravenously administered via catheter dwelled in the carotid arteries, and hind limb skin blood flow increasing action was observed. The blood flow increasing action of the test compound was expressed by increase percentage from the blood flow before administration.

T1 sequence (Q13464 whole entry): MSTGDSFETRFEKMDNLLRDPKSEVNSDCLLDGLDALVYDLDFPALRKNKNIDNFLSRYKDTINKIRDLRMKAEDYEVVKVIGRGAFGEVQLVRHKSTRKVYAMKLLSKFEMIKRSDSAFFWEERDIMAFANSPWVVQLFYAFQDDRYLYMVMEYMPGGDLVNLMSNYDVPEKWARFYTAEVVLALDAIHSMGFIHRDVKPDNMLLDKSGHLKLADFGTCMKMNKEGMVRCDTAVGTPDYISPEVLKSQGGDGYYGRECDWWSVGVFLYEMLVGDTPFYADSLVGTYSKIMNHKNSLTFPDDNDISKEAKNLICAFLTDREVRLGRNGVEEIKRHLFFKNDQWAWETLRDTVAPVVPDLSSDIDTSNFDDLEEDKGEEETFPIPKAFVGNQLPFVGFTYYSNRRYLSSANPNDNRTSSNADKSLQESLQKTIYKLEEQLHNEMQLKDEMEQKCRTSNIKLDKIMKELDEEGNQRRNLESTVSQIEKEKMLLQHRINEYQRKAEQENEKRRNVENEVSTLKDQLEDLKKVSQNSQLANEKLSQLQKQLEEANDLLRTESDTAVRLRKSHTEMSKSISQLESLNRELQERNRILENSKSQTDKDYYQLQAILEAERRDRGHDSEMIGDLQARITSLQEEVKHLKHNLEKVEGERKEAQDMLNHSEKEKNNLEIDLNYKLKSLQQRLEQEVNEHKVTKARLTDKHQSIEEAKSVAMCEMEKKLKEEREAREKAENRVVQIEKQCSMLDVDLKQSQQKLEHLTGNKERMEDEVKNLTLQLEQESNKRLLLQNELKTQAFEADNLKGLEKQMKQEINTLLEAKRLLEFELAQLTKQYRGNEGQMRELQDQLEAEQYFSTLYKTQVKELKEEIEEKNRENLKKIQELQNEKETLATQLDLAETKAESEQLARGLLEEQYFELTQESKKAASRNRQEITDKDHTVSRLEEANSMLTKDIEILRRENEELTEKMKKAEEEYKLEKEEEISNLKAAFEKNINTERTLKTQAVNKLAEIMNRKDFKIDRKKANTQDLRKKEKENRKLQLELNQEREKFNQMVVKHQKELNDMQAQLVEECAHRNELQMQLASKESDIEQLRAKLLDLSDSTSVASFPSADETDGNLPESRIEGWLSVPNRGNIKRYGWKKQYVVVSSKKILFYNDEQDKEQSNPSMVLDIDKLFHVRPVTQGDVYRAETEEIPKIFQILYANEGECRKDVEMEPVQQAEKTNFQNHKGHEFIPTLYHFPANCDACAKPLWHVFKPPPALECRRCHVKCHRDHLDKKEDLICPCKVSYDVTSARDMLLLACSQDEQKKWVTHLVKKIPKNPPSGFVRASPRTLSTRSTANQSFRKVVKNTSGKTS

| SMILES | IC50 [5] | IC50 (Human SK-Mel-28 melanoma) | also measured |
| --- | --- | --- | --- |
| CC1CNCCN1S(=O)(=O)c1cccc2cnccc12 (stereo not drawn) [Compound 308.2HCl, 1-(5-isoquinolinesulfonyl)-2-methylpiperazine] | – | – | IC50 [1]: 13.9 µM; IC50 [2]: 5 µM |
| C[C@@H](N)c1ccc(C(=O)Nc2ccnc3[nH]ccc23)cc1N=[N+]=[N-] [Compound 179.2HBr.1/2H2O, (R)-(−)-N-(1H-pyrrolo[2,3-b]pyridin-4-yl)-4-(1-aminoethyl)-3-azidebenzamide] | – | – | IC50 [3]: 0.029 µM; IC50 [4]: 0.03 µM |
| C[C@@H](N)c1ccc(C(=O)Nc2ccncc2)cc1Cl [compound 163.2HBr, (R)-(+)-N-(4-pyridyl)-4-(1-aminoethyl)-3-chlorobenzamide] | 63 µM | – | – |
| CCCCCCCCNC(=N)NC[C@H]1CC[C@H](C(=O)Nc2ccnc3[nH]ccc23)CC1 [compound 153.2HCl, trans-N-(1H-pyrrolo[2,3-b]pyridin-4-yl)-4-(3-octylguanidinomethyl)cyclohexanecarboxamide] | 27 µM | – | – |
| NC[C@H]1CC[C@H](C(=O)Nc2ncnc3[nH]ncc23)CC1 [Compound 115.2HBr.1/4H2O, trans-N-(1H-pyrazolo[3,4-d]pyrimidin-4-yl)-4-aminomethylcyclohexanecarboxamide] | – | 9 µM | – |
| N=C(N)NC[C@H]1CC[C@H](C(=O)Nc2ccnc3[nH]ccc23)CC1 [Compound 142.2HCl.H2O, trans-N-(1H-pyrrolo[2,3-b]pyridin-4-yl)-4-guanidinomethylcyclohexanecarboxamide] | – | 59 µM | inhibition at 100 µM (mouse femoral bone): 44.2% |
| C[C@@H](N)c1ccc(C(=O)Nc2ccncc2)cc1 [Compound 157.HCl.H2O, (R)-(+)-N-(4-pyridyl)-4-(1-aminoethyl)benzamide] | 55 µM | – | Increase in skin blood flow ± standard error (%) [6]: 211.6 ± 13.6% |
| Cn1ccc2c(NC(=O)[C@H]3CC[C@H](CNC(=N)N)CC3)ccnc21 [Compound 145.2HCl.H2O, trans-N-(1-methylpyrrolo[2,3-b]pyridin-4-yl)-4-(guanidinomethyl)cyclohexanecarboxamide] | – | 62 µM | – |

— patent publication US6906061B2, “Pharmaceutical agent containing Rho kinase inhibitor” (Mitsubishi Pharma Corporation, priority 1996, dated 2005)
